Source: patent US11260050B2, “Combination of cotinine plus antioxidant for treatment-resistant depression and correction of astrocytes functional deficit induced by depression and other neuropathological” (UNIVERSIDAD SAN SEBASTIAN, priority 2017, dated 2022)

Legend:
Format in all cases: in vivo, C57BL/6 mice
[1] = tested on: mice subjected to restraint stress; test: Elevated plus maze after restraint stress (Example 1, Experiment 1); details: RS mice, post-treatment with cotinine
Procedure: (§1) Mice were treated immediately after the 21 days of immobilization stress (6 h/day) until euthanasia. Mice (n=5-8/condition) received daily treatments with 1. PBS (phosphate buffer saline, pH 7.4) via intranasal (2×12 μl/nostril), 2. PBS via gavage (50 μl); 3. Cotinine dissolved in PBS via oral (gavage, (0.5 mg/kg; Cot 0.5); 4. Cotinine dissolved in PBS via intranasal (Cot IN, 10 mg/ml, 2×12 μl/nostril).
(§2) To induce chronic stress, the restraint stress paradigm was used as previously described. Mice are immobilized in 50 ml falcon plastic tubes that were attached to mouse cages. The immobilization proceeded during 6 h from 9:00 AM to 3:00 PM in absence of treatments. Tubes have holes in the opposite side of the tube to allow the animal breathing and urination. Mice were almost completely immobilized for 6 h/day for 21 days after which they were permitted freely to move, eat and drink.
Anxiety was assessed through the elevated plus maze (EPM). EPM is considered one of the best choices to test anxiolytic effects of drugs. This test is based on the observation that most of the time higher anxiety levels will diminish the time exploring new environments as a form to avoid danger (open arms).
To determine the level of anxiety, mice were tested in the EPM. […]

[2] = tested on: mice subjected to fear conditioning; test: Porsolt test after fear conditioning (Example 1, Experiment 3); details: FC mice, IN post-treatment; cotinine p<0.01, combination p<0.05
Procedure: Mice were treated via IN 2 hours after fear conditioning and continuously until euthanasia.
Mice (n=5-6/condition) received daily treatments with 1. PBS (phosphate buffer saline, pH 7.4) via intranasal (2×12 μl/nostril), 2. Cotinine dissolved in PBS via intranasal (Cot IN, 10 mg/ml, 2×12 μl/nostril); 3. Cotinine+krill oil both dissolved in PBS via intranasal (Cot IN, 10 mg/ml+KO, 48 mg/ml, 2×12 μl/nostril).
Contextual FC was performed as described. The conditioning chamber used is surrounded by a sound-attenuating box with a camera connected to freeze frame software (MED Associates Inc.), also equipped to provide a background white noise (72 dB). The conditioning chamber (33 cm×20 cm×22 cm) contains in one side a speaker and in the opposite slide has a 24V light. The chamber has a 36-bar insulated shock grid floor. […] Freezing behavior that is defined as the absence of all movement except the one needed for breathing was assessed using the FreezeView Software (MED Associates Inc.).
This test is used to measure the antidepressant effects of drugs, and consists in placing each mouse in a transparent cylinder filled with water at room temperature (RT). […] The immobility time will be recorded during a 15-min and a next day 5-min trial. The time spent by each mouse immobile will be recorded.

[3] = tested on: mice subjected to restraint stress; test: Novel object recognition after restraint stress (Example 1, Experiment 1); details: RS mice, 14 days of IN cotinine; p<0.05
Procedure: as §1, §2
After a habituation step in the OF arena, each mouse was individually placed in the apparatus containing two identical objects located equidistant to each other (familiarization phase) and left to explore the objects for 5 min. Then, mice were returned to their cages and permitted to rest for 30 min. […] The time exploring the two objects was recorded during 5 min. […]

CN1C(=O)CC[C@H]1c1cccnc1 [Cotinine, (5S)-1-methyl-5-(3-pyridyl) pyrrolidin-2-one]
locomotor activity (distance traveled) in the EPM ([1]; Tukey p<0.01): reduced significantly the locomotor activity in the RS mice | rearing activity in the elevated plus maze ([1]; vs Ctrl non-restrained mice): did not show differences with Ctrl non-restrained mice | depressive-like behavior (freezing) in the Porsolt test [2]: significant decrease in depressive-like behavior | number of entries into the new object area (NOR) [3]: increased the number of entries into the new object area to control values
